Converted amounts (≈) assume the structure as drawn. Bounds are passed on as bounds.

A short description of series [1]: Cytotoxicity against human THP-1 cells assessed as reduction in cell viability treated for 96 hrs by MTT assay. Type of series: toxicity, cell-based. Background: Tetrazolium dyes change colour on reduction, which living cells bring about.
The subject of series [2] is Mycobacterium tuberculosis. It is filed as functional. The following applies: H37Rv, 336 h, time 14 day.
In series [3] the test system is Mycobacterium tuberculosis. It is filed as functional, H37Rv. Particulars: dose 200 mg/kg; route po; time 10 day.
In series [4] the test system is HepG2. As to the kind of experiment: Cytotoxicity against human HepG2 cells assessed as reduction in cell viability treated for 3 days by resazurin reduction microplate assay. It is filed as functional. Particulars: HepG2, 72 h, time 3 day. Background: Alamar Blue is a resazurin reagent that responds to reducing activity.
Series [5] relates to Mycobacterium tuberculosis. It is filed as functional. Particulars: H37Rv, time 6 day.
The test system of series [6] is Mycobacterium tuberculosis. As to the kind of experiment: Antibacterial activity against Mycobacterium tuberculosis in chronic Mtb infection BALB/c mouse model assessed as reduction in log10 CFU in lungs at 100 mg/kg, po for 4 weeks. Type of series: functional.
Series [7] can be described thus: Half life in BALB/c mouse at 100 mg/kg, po by LC/MS analysis. It is filed as ADME, organism-based. The following applies: in vivo.
The test system of series [8] is Mycobacterium tuberculosis. Type of series: functional. The following applies: H37Rv.
Series [9] has as its target Voltage-gated inwardly rectifying potassium channel KCNH2 (Homo sapiens, UniProt Q12809). The series can be described thus: Inhibition of hERG expressed in human HEK293 cells by manual patch clamp method. It is filed as toxicity, cell-based. (The hERG channel carries a current that helps repolarise heart muscle cells.)
Series [10] can be described thus: Cytotoxicity against African green monkey Vero cells assessed as reduction in cell viability treated for 3 days by Cell Titer Glo assay. It is filed as toxicity, cell-based. The following applies: chlorocebus sabaeus, time 3 day.
Series [11] deals with Mycobacterium tuberculosis. As to the kind of experiment: Antibacterial activity against Mycobacterium tuberculosis Erdman in acute Mtb infection BALB/c mouse model assessed as reduction in log10 CFU in lungs at 50 mg/kg, po via gavage for 8 weeks. It is filed as functional.
The nature of series [12]: Cytotoxicity against African green monkey Vero cells assessed as reduction in cell viability treated for 72 hrs by CCK8 assay. Type of series: toxicity, cell-based. Particulars: chlorocebus sabaeus.
Series [13] concerns Mycobacterium tuberculosis. Type of series: functional, H37Rv. The following applies: dose 3.1 mg/kg; route po; time 4 weeks.
Series [14] can be described thus: Half life in Sprague-Dawley rat at 10 mg/kg, po via gavage measured for 0.25 to 96 hrs by LC/MS analysis. Type of series: ADME, organism-based. Particulars: in vivo, time 0.25-96 hrs.
Series [15] can be described thus: Oral bioavailability in Sprague-Dawley rat at 10 mg/kg via gavage measured for 0.25 to 96 hrs by LC/MS analysis. It is filed as ADME, organism-based. Particulars: in vivo, time 0.25-96 hrs.
Series [16] concerns Mycobacterium tuberculosis. It is filed as functional, H37Rv. The following applies: dose 200 mg/kg; route po; time 4 weeks.
The nature of series [17]: Acute toxicity in 10 to 14 hr fasted Sprague-Dawley rat assessed as maximum tolerated dose administered orally via gavage. The following applies: in vivo, time 10-14 hrs, route po.
Series [18] has as its system Mycolicibacterium smegmatis. The series can be described thus: Inhibition of ATP synthesis in Mycobacterium smegmatis derived membrane vesicle incubated for 60 mins by luciferase based assay. It is filed as functional. Particulars: 1 h.
In series [19] the test system is Mycobacterium tuberculosis. As to the kind of experiment: microbe, parasite or virus in culture. Particulars: H37Rv.
Description: Antibacterial activity against Mycobacterium tuberculosis H37Rv assessed as inhibition of bacterial growth
The subject of series [20] is Mycobacterium tuberculosis. Type of series: functional, H37Rv. The following applies: dose 100 mg/kg; route po; time 2 weeks.
A short description of series [21]: Metabolic stability in human liver microsomes assessed as compound remaining measured after 1 hr in presence of NADP+ by LC-MS/MS analysis. The following applies: read-out: Stability. It is filed as ADME, Microsome.
The target in a further series is Cytochrome P450 3A4 (Homo sapiens, UniProt P08684). The series can be described thus: Inhibition of CYP3A4 in human liver microsome using midazolam as substrate incubated for 10 mins in presence of NADP+ by LC-MS/MS analysis. Type of series: ADME, microsomes.
Cytochrome P450 3A4, sequence (P08684 whole entry): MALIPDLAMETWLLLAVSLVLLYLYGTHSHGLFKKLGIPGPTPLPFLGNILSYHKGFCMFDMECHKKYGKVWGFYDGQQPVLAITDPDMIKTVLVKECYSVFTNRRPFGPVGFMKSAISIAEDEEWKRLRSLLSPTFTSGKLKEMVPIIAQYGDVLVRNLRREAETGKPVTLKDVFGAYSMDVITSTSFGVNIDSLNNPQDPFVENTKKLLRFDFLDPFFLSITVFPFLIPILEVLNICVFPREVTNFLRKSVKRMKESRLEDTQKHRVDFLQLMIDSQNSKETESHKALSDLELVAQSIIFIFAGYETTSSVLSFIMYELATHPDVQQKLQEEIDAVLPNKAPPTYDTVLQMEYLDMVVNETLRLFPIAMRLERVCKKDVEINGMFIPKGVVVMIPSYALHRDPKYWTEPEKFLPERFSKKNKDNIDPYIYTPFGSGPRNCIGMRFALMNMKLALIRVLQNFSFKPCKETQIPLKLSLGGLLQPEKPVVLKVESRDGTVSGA
In series [22] the test system is Mycobacterium tuberculosis. It is filed as functional, H37Rv. The following applies: dose 100 mg/kg; route po; time 4 weeks.
The nature of series [23]: Metabolic stability in mouse liver microsomes assessed as compound remaining measured after 1 hr in presence of NADP+ by LC-MS/MS analysis. It is filed as ADME, Microsome. The following applies: read-out: Stability.
The subject of series [24] is HepG2. The series can be described thus: Cytotoxicity against human HepG2 cells treated for 48 hrs by resazurin dye based assay. It is filed as functional.
Series [25] relates to Mycobacterium tuberculosis. Type of series: functional. Particulars: H37Rv, time 6 day. This is another data set of the same source.
For series [26], the system named is Mycobacterium tuberculosis. It is filed as functional, H37Rv. Particulars: dose 100 mg/kg; route po; time 3 weeks.
The test system of series [27] is Mycobacterium tuberculosis. It is filed as functional, H37Rv. The following applies: dose 50 mg/kg; route po; time 3 weeks.
Series [28] deals with Mycobacterium tuberculosis. It is filed as functional. Particulars: H37Rv, 168 h, time 7 day.

Voltage-gated inwardly rectifying potassium channel KCNH2, sequence (Q12809 whole entry): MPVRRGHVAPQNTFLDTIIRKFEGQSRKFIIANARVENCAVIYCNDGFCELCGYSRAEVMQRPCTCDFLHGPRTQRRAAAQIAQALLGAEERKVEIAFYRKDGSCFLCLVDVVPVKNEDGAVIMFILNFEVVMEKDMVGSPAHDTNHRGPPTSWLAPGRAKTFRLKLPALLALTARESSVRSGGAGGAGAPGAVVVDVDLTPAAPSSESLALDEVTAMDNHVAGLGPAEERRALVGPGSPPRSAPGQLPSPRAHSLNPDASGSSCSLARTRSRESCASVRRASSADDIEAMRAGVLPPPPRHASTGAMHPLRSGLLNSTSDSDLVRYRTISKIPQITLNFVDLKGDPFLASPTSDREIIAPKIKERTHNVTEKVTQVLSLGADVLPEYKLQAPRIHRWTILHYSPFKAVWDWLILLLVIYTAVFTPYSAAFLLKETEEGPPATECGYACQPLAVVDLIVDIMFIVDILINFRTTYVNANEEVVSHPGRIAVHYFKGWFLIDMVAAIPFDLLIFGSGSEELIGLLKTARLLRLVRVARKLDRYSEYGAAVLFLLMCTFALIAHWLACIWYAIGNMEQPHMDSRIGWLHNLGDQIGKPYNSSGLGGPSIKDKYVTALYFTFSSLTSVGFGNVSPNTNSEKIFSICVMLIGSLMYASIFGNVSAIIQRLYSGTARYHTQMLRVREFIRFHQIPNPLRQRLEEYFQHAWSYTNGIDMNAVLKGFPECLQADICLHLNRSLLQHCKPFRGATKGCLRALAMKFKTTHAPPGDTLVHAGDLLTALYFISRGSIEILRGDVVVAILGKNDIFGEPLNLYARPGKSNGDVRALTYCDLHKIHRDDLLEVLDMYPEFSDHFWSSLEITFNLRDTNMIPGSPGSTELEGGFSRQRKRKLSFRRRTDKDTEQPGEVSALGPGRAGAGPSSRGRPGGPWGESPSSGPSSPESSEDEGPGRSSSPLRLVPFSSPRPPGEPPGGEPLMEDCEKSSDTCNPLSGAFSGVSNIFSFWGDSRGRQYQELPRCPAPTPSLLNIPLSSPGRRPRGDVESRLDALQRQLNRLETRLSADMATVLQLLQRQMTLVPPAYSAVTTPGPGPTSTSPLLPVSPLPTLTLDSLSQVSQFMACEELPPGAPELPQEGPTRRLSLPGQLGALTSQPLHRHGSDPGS

`O=[N+]([O-])c1cc2cccnc2c2ncccc12`: the CC50 at 96 h in series [1] was above 25 µM. Besides, the MIC99 in [2] came to 0.78 µM (≈ 0.176 µg/mL).

As to `O=C(/C=C/c1cccs1)N1CCN(Cc2ccc3c(c2)OCO3)CC1`, the Activity in series [3] was 0.4 log10CFU. Besides, in the series with HepG2 [4], the CC50 stood at 140 µM. The molecule further came in with an MIC90 in series [5] of 0.14 µM (≈ 0.0499 µg/mL).

As to `Nc1nc(N)c(N=O)c(OCC2CCCCC2)n1`, the Activity in series [6] is 0.9 log10CFU. This molecule also showed a half-life in series [7] of 1 h.

On to `COc1ccn2nc(C)c(C(=O)NCc3ccc(N4CCC(c5ccc(OC(F)(F)F)cc5)CC4)cc3)c2c1`, for which, in [8], the MIC90 was 0.011 µM (≈ 0.00592 µg/mL). The IC50 in [9] was above 30 µM. The CC50 at 72 h in series [10] and in [12] was above 100 µM throughout. Also, the Activity was 0.3 log10CFU in [11], 2.2 log10CFU in [13] and 2.2 log10CFU in [16]. Besides, the half-life in [14] was 19 h. For the same molecule, the bioavailability in series [15] stood at 94%. The MTD in series [17] was above 2000 mg/kg.

In series [18], `CN(C)CCOc1ncc(Nc2cc(-c3ccccc3)nc3cc(-c4ccc(F)cc4)nn23)cc1F` gave an IC50 of 0.5 µM. Besides, in series [19], the MIC80 was found to be 6.2 µM (≈ 3.02 µg/mL). The Activity in series [20] amounted to 1.5 log10CFU.

For the molecule `CC(C)c1ccc(-c2nc(CN3CCN(c4ccnc5cc(-c6cccnc6)ccc45)CC3)no2)cc1`, the results for the remaining at 1 h in [21] and in series [23] were 40% and 1.2%, respectively. In addition, at Cytochrome P450 3A4, the half-maximal inhibitory concentration (IC50) is above 25 µM. Also, in [22], the Activity was 0.6 log10CFU. The same molecule gave a CC50 with HepG2 [24] above 130 µM. It took 1 µM (≈ 0.491 µg/mL) to inhibit growth in [25] (MIC).

On to `CC(=O)NC[C@@H]1OC(=O)N2c3cc(F)c(N4CCSCC4)cc3OC[C@@H]12`, for which the Activity is listed as 5.1 log10CFU in [26] and “>=3 log10CFU” in series [27]. Also, the MIC90 in series [28] worked out at 0.08 µM (≈ 0.0305 µg/mL).

As usually defined, the CC50 is the concentration giving 50% cytotoxicity. The term MIC99 denotes the lowest concentration that inhibits either 99% of growth or 99% of the strains tested, depending on the study. As a reminder, the MIC90 is an inhibitory concentration at the 90% level, which refers to growth in some studies and to a panel of isolates in others. Broadly, the half-life is the time in which the quantity being followed falls by half. The term IC50 denotes the midpoint of a concentration-inhibition curve. The term bioavailability denotes dose-corrected exposure relative to a reference, in per cent. For orientation: MTD means the highest dose tested that stayed within the study's limit of toxicity. A word on the MIC: it is the least concentration at which growth counts as inhibited.

The values above are taken from ChEMBL document CHEMBL5137025, “Tuberculosis Drug Discovery: Challenges and New Horizons” (J Med Chem, 2022).
